Common to all, as to assay: ≥ marks a high value that may be exact or a test limit, other limits are often not marked, values filed in µg/mL are converted to µM
Assay [1] has as its system Bacillus anthracis Sterne 34F2.
Assay [2] concerns Bacillus subtilis var. niger ATCC 9372.
Assay [3] concerns Escherichia coli K91BK.
For assay [4], the system named is Pseudomonas syringae pv. tomato DC3000.
For assay [5], the system named is Pseudomonas corrugata DSM 7228.
Assay [6] concerns Alternaria alternata.
For assay [7], the system named is Cladosporium herbarum.
The test system of assay [8] is Xanthomonas vesicatoria DSM 50861.
In assay [9] the test system is Clavibacter michiganensis subsp. michiganensis DSM 46294.
For assay [10], the system named is Botrytis cinerea.
The test system of assay [11] is Pectobacterium carotovorum subsp. carotovorum DSM 30168.
In assay [12] the test system is Pseudomonas syringae pv. syringae DSM 10604.
Assay [13] relates to Staphylococcus aureus 90857.
Assay [14] relates to Klebsiella pneumoniae ATCC 700603.
Assay [15] deals with Fusarium oxysporum LD21.
The subject of assay [16] is Shewanella putrefaciens ATCC 49138.
For assay [17], the system named is Streptococcus pneumoniae ATCC 700677.
For assay [18], the system named is Streptococcus pneumoniae ATCC 33400.
Assay [19] relates to Salmonella enterica subsp. enterica serovar Enteritidis ATCC 13076.
The subject of assay [20] is Pseudomonas aeruginosa ATCC 10145.
The subject of assay [21] is Staphylococcus epidermidis ATCC 29887.
Assay [22] has as its system Escherichia coli CGSC 5167.
Assay [23] has as its system Staphylococcus aureus ATCC 25923.
Assay [24] relates to Enterococcus faecium ATCC 35667.
For assay [25], the system named is Enterococcus faecalis JH-2-2.
Assay [26] deals with Escherichia coli ATCC 25922.
Assay [27] deals with Staphylococcus aureus ATCC 33591.
In assay [28] the test system is Candida albicans ATCC 10231.
For assay [29], the system named is Acinetobacter baumannii LMG 01041.
Assay [30] has as its system Staphylococcus aureus ATCC 29213.
Assay [31] deals with Candida albicans ATCC 64550.
The test system of assay [32] is Pseudomonas aeruginosa LMG 6395.
In assay [33] the test system is Klebsiella aerogenes LMG 02094.
Assay [34] deals with Klebsiella pneumoniae ATCC 13883.
In assay [35] the test system is Streptococcus agalactiae ATCC 13813.
In assay [36] the test system is Campylobacter jejuni ATCC 33291.
The test system of assay [37] is Escherichia coli LMG 15862.
For assay [38], the system named is Enterococcus faecium ATCC 51559.
Assay [39] has as its system Pseudomonas aeruginosa ATCC 27853.
Assay [40] concerns Listeria monocytogenes ATCC 19115.
Assay [41] deals with Klebsiella pneumoniae LMG 20218.

In brackets after ≈: the same amount, converted by molar mass.

Results on four molecules are retold here after DBAASP.

The term MIC denotes the lowest concentration found to suppress growth. Read a high MIC as weaker potency. Regarding `CC[C@H](C)[C@H](NC(C)=O)C(=O)N[C@@H](CC(C)C)C(=O)N[C@@H](CCCN=C(N)N)C(=O)N[C@@H](Cc1c[nH]c2ccccc12)C(=O)N1CCC[C@H]1C(=O)N[C@@H](Cc1c[nH]c2ccccc12)C(=O)N[C@@H](Cc1c[nH]c2ccccc12)C(=O)N1CCC[C@H]1C(=O)N[C@@H](Cc1c[nH]c2ccccc12)C(=O)N[C@@H](CCCN=C(N)N)C(=O)N[C@@H](CCCN=C(N)N)C(=O)N[C@@H](CCCCN)C(N)=O` [ILRWPWWPWRRK], the values for the MIC in assay [1], in assay [2] and in assay [3] were 25 µM (≈ 45.5 µg/mL), 3.13 µM (≈ 5.7 µg/mL) and ≥ 100 µM, respectively.
On to `CC[C@H](C)[C@H](NC(=O)[C@H](Cc1ccccc1)NC(=O)[C@H](CCCN=C(N)N)NC(=O)[C@H](CCCCN)NC(=O)[C@H](CC(C)C)NC(=O)[C@H](Cc1ccccc1)NC(=O)[C@H](CCCCN)NC(=O)[C@@H](NC(=O)[C@H](CC(C)C)NC(=O)[C@@H](N)CC(C)C)[C@@H](C)CC)C(=O)N[C@@H](CCCCN)C(=O)N[C@@H](Cc1cnc[nH]1)C(N)=O` [LLIKFLKRFIKH], for which the MIC in assay [4] is 3.21 µM (≈ 5 µg/mL); in [5], 6.43 µM (≈ 9.99 µg/mL); in assay [6], ≥ 64.3 µM; in [7], 12.9 µM (≈ 20 µg/mL); in [8] it was 3.21 µM (≈ 5 µg/mL); in assay [9], 3.21 µM (≈ 5 µg/mL). Besides, the minimal inhibitory concentration (MIC) in assay [10] is ≥ 64.3 µM; in assay [11], 25.7 µM (≈ 40 µg/mL); in assay [12], 6.43 µM (≈ 9.99 µg/mL).
Regarding `CC[C@H](C)[C@H](NC(=O)[C@H](CCCCN)NC(=O)[C@H](CCCCN)NC(=O)[C@H](CC(C)C)NC(=O)[C@H](Cc1ccccc1)NC(=O)[C@H](CCCN=C(N)N)NC(=O)[C@@H](N)CC(C)C)C(=O)N[C@@H](CC(C)C)C(=O)N[C@@H](CCCCN)C(=O)N[C@@H](CCCCN)C(=O)N[C@@H](CC(C)C)C(=O)N[C@@H](Cc1ccccc1)C(N)=O` [LRFLKKILKKLF], the minimal inhibitory concentration (MIC) was 0.646 µM (≈ 0.999 µg/mL) in assay [4]; 1.62 µM (≈ 2.5 µg/mL) in [5]; 1.62 µM (≈ 2.5 µg/mL) in [8]; 0.646 µM (≈ 0.999 µg/mL) in [9]; 1.62 µM (≈ 2.5 µg/mL) in assay [11]; 1.5 µM (≈ 2.32 µg/mL) in [13]. Also, in [12], the MIC was found to be 1.62 µM (≈ 2.5 µg/mL).
Regarding `CC[C@H](C)[C@H](NC(=O)[C@H](CCCN=C(N)N)NC(=O)[C@H](CCCN=C(N)N)NC(=O)[C@H](Cc1ccccc1)NC(=O)[C@H](CC(C)C)NC(=O)[C@H](CCCN=C(N)N)NC(=O)[C@@H](N)CCCN=C(N)N)C(=O)N[C@@H](CC(C)C)C(=O)N[C@@H](CCCN=C(N)N)C(=O)N[C@@H](Cc1c[nH]c2ccccc12)C(=O)N[C@@H](CC(C)C)C(N)=O` [RRLFRRILRWL], the MIC was 0.3 µM (≈ 0.475 µg/mL) in assay [14]; 7.57 µM (≈ 12 µg/mL) in assay [15]; 3.79 µM (≈ 6 µg/mL) in assay [16]; 0.4 µM (≈ 0.634 µg/mL) in [17]; 0.8 µM (≈ 1.27 µg/mL) in assay [18]; 3.79 µM (≈ 6 µg/mL) in assay [19]. The minimum inhibitory concentration (MIC) is 2.5 µM (≈ 3.96 µg/mL) in assay [20]; 1.89 µM (≈ 3 µg/mL) in assay [21]; 0.2 µM (≈ 0.317 µg/mL) in [22]; 0.8 µM (≈ 1.27 µg/mL) in [23]; 1 µM (≈ 1.58 µg/mL) in assay [24]; 15.8 µM (≈ 25 µg/mL) in assay [25]. Further, the MIC in assay [26] is 0.5 µM (≈ 0.792 µg/mL); in [27], 0.3 µM (≈ 0.475 µg/mL); in assay [28], 7.57 µM (≈ 12 µg/mL); in assay [29], 2 µM (≈ 3.17 µg/mL); in assay [30], 3.79 µM (≈ 6 µg/mL); in [31], ≥ 100 µM. The MIC in assay [32] came out at 3 µM (≈ 4.75 µg/mL); in assay [33] it was 8 µM (≈ 12.7 µg/mL); in assay [34], 0.1 µM (≈ 0.158 µg/mL); in assay [35], 1.89 µM (≈ 3 µg/mL); in assay [36] it was 3.79 µM (≈ 6 µg/mL); in [37] it was 2 µM (≈ 3.17 µg/mL). For the same molecule, the minimum inhibitory concentration (MIC) in [38] stood at 1 µM (≈ 1.58 µg/mL); in assay [39], 1.5 µM (≈ 2.38 µg/mL); in assay [40] it was 3.79 µM (≈ 6 µg/mL); in [41], 4 µM (≈ 6.34 µg/mL).
